How the values were obtained:
[1] = species: Homo sapiens; test: Inhibition of human TRK relative to control; set-up: concentration or dose not given beside the values; settings: concentration not given here
[2] = biological target: Prostaglandin G/H synthase 1 (Homo sapiens, UniProt P23219)
[3] = Inhibition of palmitate-induced lipid accumulation in human HepG2 cells relative to control; format: functional
[4] = biological target: T1, Glutamate receptor ionotropic AMPA (Homo sapiens, UniProt P42261+P42262+P42263+P48058); test: Binding affinity to AMPA receptor (unknown origin); format: protein-complex assay
[5] = biological target: Glutamate receptor 2 (Homo sapiens, UniProt P42262); test: Binding affinity to GluA2 receptor (unknown origin)
Sequence of Glutamate receptor 2 (P42262 whole entry): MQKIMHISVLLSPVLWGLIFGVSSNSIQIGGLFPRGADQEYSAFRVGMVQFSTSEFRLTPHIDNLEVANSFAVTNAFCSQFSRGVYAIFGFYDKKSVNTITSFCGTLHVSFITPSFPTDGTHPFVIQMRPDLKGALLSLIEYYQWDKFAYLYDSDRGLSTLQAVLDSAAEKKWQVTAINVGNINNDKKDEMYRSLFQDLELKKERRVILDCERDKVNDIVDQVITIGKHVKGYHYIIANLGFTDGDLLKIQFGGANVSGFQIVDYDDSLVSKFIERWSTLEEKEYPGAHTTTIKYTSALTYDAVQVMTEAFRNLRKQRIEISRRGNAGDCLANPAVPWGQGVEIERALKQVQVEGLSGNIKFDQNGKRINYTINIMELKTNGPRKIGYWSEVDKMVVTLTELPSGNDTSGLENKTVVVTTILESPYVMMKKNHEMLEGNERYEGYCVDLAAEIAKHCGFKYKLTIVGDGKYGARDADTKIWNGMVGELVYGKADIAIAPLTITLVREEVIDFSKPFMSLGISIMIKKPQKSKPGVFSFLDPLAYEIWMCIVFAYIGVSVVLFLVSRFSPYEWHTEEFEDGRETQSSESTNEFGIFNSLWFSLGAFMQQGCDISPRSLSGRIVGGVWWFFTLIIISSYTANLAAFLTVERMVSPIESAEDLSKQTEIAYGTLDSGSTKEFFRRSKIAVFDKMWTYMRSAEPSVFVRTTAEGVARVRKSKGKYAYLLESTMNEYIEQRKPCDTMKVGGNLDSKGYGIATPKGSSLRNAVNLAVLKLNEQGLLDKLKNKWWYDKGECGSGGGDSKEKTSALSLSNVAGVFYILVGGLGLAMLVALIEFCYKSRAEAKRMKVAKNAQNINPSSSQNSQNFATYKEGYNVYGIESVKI

[6] = biological target: Glutamate receptor ionotropic, kainate 2 (Homo sapiens, UniProt Q13002); test: Binding affinity to GluK2 receptor (unknown origin)
Sequence of Glutamate receptor ionotropic, kainate 2 (Q13002 whole entry): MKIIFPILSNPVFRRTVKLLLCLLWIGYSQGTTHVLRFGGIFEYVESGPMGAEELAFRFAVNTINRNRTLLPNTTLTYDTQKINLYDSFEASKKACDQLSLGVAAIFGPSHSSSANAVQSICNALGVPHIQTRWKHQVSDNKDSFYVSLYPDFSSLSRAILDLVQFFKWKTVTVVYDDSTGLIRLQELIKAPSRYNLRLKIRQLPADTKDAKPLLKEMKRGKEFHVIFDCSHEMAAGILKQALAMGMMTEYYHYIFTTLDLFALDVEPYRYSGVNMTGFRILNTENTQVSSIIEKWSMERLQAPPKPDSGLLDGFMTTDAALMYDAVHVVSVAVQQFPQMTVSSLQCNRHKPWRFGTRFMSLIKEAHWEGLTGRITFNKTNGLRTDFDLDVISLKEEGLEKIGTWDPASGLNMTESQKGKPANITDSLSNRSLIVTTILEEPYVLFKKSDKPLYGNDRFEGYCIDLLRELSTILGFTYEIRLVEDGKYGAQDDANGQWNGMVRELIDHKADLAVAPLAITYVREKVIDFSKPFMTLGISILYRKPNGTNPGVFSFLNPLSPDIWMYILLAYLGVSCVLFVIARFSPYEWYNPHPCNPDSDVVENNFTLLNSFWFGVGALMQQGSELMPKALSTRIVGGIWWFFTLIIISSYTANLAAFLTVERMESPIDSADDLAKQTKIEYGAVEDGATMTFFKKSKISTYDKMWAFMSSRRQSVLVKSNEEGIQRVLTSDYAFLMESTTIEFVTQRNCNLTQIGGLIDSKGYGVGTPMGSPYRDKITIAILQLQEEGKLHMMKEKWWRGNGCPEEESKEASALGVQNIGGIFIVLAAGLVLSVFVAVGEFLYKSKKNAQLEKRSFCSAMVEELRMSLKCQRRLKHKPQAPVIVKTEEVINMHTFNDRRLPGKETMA

[7] = Binding affinity to KA receptor (unknown origin); set-up: species or system Homo sapiens
[8] = biological target: Glutamate [NMDA] receptor; test: Binding affinity to NMDA receptor (unknown origin); format: protein-complex assay, Homo sapiens
[9] = biological target: Human immunodeficiency virus type 1 reverse transcriptase (Human immunodeficiency virus 1, UniProt Q72547); test: Inhibition of HIV1 reverse transcriptase
[10] = biological target: Glutamate receptor ionotropic, kainate 1 (Homo sapiens, UniProt P39086); test: Binding affinity to GluK1 receptor (unknown origin)
Sequence of Glutamate receptor ionotropic, kainate 1 (P39086 whole entry): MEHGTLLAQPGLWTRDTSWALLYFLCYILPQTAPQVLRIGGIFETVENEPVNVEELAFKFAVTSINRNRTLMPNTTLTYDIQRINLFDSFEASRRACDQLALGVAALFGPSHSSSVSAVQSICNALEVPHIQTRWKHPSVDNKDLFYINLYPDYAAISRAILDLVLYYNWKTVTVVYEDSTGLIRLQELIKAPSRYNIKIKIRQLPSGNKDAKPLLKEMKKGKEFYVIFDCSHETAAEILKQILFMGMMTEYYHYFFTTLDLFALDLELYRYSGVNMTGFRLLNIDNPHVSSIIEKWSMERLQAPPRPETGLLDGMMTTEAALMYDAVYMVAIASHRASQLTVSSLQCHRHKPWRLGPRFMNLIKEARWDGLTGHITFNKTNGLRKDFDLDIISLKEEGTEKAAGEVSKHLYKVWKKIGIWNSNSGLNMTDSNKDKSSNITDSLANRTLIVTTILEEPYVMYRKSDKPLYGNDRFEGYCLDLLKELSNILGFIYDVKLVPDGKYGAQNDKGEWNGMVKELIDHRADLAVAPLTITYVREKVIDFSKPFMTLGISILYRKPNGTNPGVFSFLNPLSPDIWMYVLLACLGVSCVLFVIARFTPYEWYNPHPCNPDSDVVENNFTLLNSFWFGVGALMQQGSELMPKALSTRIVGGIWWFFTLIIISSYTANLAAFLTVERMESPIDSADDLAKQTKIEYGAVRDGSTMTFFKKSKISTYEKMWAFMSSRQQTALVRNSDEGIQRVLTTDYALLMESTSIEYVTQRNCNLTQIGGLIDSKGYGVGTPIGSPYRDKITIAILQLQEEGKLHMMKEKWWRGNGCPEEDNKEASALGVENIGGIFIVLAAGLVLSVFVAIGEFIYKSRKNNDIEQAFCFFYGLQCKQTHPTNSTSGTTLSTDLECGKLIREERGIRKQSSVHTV

[11] = biological target: Human immunodeficiency virus type 1 reverse transcriptase (Human immunodeficiency virus 1) (UniProt Q72547); test: Inhibition of HIV1 reverse transcriptase at 10 uM relative to control
[12] = biological target: Human immunodeficiency virus type 1 reverse transcriptase (Human immunodeficiency virus 1) (UniProt Q72547); test: Inhibition of HIV1 reverse transcriptase at 100 uM relative to control
[13] = biological target: T1, Glutamate receptor ionotropic AMPA; test: Displacement of [3H]AMPA from AMPA receptor (unknown origin); format: protein-complex assay
[14] = biological target: T1, Glutamate receptor ionotropic AMPA; test: Displacement of [3H]kainate from AMPA receptor (unknown origin); format: protein-complex assay
[15] = Displacement of [3H]glycine from AMPA receptor (unknown origin); format: protein-complex assay, Homo sapiens
[16] = Antioxidant activity assessed as DPPH radical scavenging activity; format: functional; settings: read-out: IC50
[17] = biological target: T2, Alpha amylase (Homo sapiens, UniProt P0DUB6); test: Inhibition of alpha-amylase (unknown origin)
T2 sequence (P0DUB6 whole entry): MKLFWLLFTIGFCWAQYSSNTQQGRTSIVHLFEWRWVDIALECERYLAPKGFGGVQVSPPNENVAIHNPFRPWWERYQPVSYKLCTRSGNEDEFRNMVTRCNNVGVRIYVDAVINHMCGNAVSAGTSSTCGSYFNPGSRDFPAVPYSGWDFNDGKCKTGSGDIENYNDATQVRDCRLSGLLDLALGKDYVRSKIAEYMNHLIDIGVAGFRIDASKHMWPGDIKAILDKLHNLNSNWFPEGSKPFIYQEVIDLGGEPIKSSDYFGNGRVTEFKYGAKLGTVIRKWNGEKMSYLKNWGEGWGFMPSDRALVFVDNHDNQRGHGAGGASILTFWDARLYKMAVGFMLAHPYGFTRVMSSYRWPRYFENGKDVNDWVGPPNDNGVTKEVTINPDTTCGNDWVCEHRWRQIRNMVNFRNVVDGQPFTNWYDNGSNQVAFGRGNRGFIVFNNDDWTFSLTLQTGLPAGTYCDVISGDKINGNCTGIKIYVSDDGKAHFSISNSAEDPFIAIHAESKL

[18] = biological target: Glutamate [NMDA] receptor; test: Displacement of [3H]glycine from NMDA receptor (unknown origin); format: protein-complex assay, Homo sapiens
[19] = Inhibition of ALR2 (unknown origin); set-up: species or system Homo sapiens
[20] = Inhibition of ALR1 (unknown origin) relative to control; set-up: concentration or dose not given beside the values; settings: Homo sapiens; concentration not given here
[21] = Antioxidant activity assessed as DPPH radical scavenging activity at 100 uM; format: functional
[22] = Antioxidant activity assessed as DPPH radical scavenging activity at 50 uM; format: functional
[23] = system: MCF7; test: Antiproliferative activity against human MCF7 cells; format: functional, cell-based
[24] = system: HepG2; test: Antiproliferative activity against human HepG2 cells; format: functional, cell-based

Sequence of Prostaglandin G/H synthase 1 (P23219 whole entry): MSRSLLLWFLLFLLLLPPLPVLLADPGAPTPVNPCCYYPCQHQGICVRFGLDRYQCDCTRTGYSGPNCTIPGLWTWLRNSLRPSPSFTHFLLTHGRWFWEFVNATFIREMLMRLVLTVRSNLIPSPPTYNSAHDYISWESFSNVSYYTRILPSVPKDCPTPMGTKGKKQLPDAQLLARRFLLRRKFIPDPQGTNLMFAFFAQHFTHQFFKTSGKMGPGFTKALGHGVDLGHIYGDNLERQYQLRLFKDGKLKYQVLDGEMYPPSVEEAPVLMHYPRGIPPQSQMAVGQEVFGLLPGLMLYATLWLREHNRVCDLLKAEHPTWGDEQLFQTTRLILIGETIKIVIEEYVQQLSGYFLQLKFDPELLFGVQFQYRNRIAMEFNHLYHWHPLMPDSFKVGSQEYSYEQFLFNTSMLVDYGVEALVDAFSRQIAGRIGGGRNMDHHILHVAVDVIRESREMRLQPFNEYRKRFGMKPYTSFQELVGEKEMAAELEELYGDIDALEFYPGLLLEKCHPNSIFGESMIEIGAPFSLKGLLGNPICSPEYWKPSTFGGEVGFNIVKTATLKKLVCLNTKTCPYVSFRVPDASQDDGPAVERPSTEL

Cc1nn(-c2ccccc2)c(N2CCNCC2)c1/C=N/Nc1nc2ccccc2nc1O
inhibition [1]: 20%
IC50 [2]: > 50 µM

Cc1cccc2c1NCCN2
inhibition (INH) [3]: 30%

O=C(O)c1ccc(-c2ccc3[nH]c(=O)c(=O)[nH]c3c2)cc1
IC50 [4]: > 100 µM
Ki [5]: > 100 µM
Ki [6]: 48 µM
IC50 [7]: > 100 µM
Ki [8]: > 100 µM

COC(=O)c1sccc1S(=O)(=O)N1c2cc(Cl)ccc2NC(=O)C1C (centres undefined)
IC50 [9]: 0.2 µM

Cc1nn(-c2ccccc2)c(N2CCOCC2)c1/C=N/Nc1nc2ccccc2nc1O
inhibition [1]: 84%
IC50 [2]: > 50 µM

Cc1nn(-c2ccccc2)c(N(C)C)c1/C=N/Nc1nc2ccccc2nc1O
inhibition [1]: 62%
IC50 [2]: > 50 µM

COC(=O)c1sc(Cl)cc1S(=O)(=O)N1c2cc(Cl)ccc2NC(=O)C1C (centres undefined)
IC50 [9]: 0.07 µM

O=c1[nH]c2ccc(-c3cccc(P(=O)(O)O)c3)cc2[nH]c1=O
IC50 [4]: > 100 µM
Ki [5]: > 100 µM
Ki [10]: 12 µM
Ki [6]: > 100 µM
IC50 [7]: > 100 µM
Ki [8]: > 100 µM

CC(=O)N1CC(=O)Nc2ccccc21
inhibition [11]: 7%
inhibition [12]: 56%

Cc1nn(-c2ccccc2)c(N2CCN(C)CC2)c1/C=N/Nc1nc2ccccc2nc1O
inhibition [1]: 83%
IC50 [2]: > 50 µM

CCC(C)CN1CCc2c(Br)cc3nc(O)c(O)nc3c2C1 (centres undefined)
IC50 [13]: > 100 µM
IC50 [14]: 2.9 µM
IC50 [15]: > 100 µM

Cc1ccc2c(c1)N[C@H](C)C(=O)N2
inhibition (INH) [3]: 50%

Cc1nn(-c2ccccc2)c(Cl)c1/C=N/Nc1nc2ccccc2[nH]c1=O
inhibition [1]: 34%
IC50 [2]: > 50 µM

Cc1ccc2ncc(C)nc2c1
inhibition (INH) [3]: 20%

Cc1cccc2c1NC[C@H](C)N2
inhibition (INH) [3]: 30%

CC(C)c1nc2ccc(N3C(=O)CSC3c3ccc([N+](=O)[O-])cc3)cc2[nH]c1=O (centres undefined)
IC50 [16]: 162 µM
IC50 [17]: 356.32 µM

CC(C)Cc1nc2ccccc2[nH]c1=O
IC50 [9]: 23 µM
inhibition [11]: 15%
inhibition [12]: 73%

Cc1cnc2ccccc2n1
inhibition (INH) [3]: 20%

O=c1[nH]c2cc(-n3ccnc3)c([N+](=O)[O-])cc2[nH]c1=O [YM-90K]
Ki [13]: 0.084 µM
Ki [14]: 2.2 µM
Ki [15]: 37 µM

Cc1cc2[nH]c(=O)c(=O)n(CP(=O)(O)O)c2cc1C
Ki [13]: 1.21 µM
Ki [18]: 5.28 µM

CC(C)CCN1CCc2c(Br)cc3nc(O)c(O)nc3c2C1
IC50 [13]: 9.7 µM
IC50 [14]: 0.68 µM
IC50 [15]: > 10 µM

O=C(O)c1ccccc1/C=C/c1ccc2[nH]c(=O)c(=O)[nH]c2c1
IC50 [4]: 0.48 µM
Ki [10]: 1.4 µM
Ki [6]: 2.5 µM
IC50 [7]: 24 µM
Ki [8]: > 100 µM

CN1CCNc2ccccc21
inhibition (INH) [3]: 30%

O=C(O)Cn1c(=O)c(=O)[nH]c2cc(Cl)c(Cl)cc21
Ki [13]: 2.1 µM
Ki [18]: 0.11 µM

COc1cccc(/C=N/Nc2nc3ccccc3[nH]c2=O)c1
IC50 [17]: 492.68 µM

O=C(O)c1cc(-c2ccc3[nH]c(=O)c(=O)[nH]c3c2)ccc1Cl
IC50 [4]: 24 µM
Ki [5]: > 100 µM
Ki [10]: 1.2 µM
Ki [6]: 33 µM
IC50 [7]: 57 µM
Ki [8]: > 100 µM

CCC(=O)N1CC(=O)Nc2ccccc21
IC50 [9]: 0.63 µM
inhibition [11]: 91%
inhibition [12]: 99%

CN1CCc2c([N+](=O)[O-])cc3[nH]c(=O)c(=O)[nH]c3c2C1
IC50 [13]: 0.063 µM
IC50 [14]: 0.368 µM
IC50 [15]: 0.37 µM

Cc1cccc2c1NC(=O)CN2
inhibition (INH) [3]: 50%

COc1ccc2nc(/C=C/c3ccc(O)cc3)c(=O)n(CC(=O)O)c2c1
IC50 [19]: 0.059 µM
inhibition [20]: 37.6%
Activity [21]: 59.2%
Activity [22]: 34.3%

CC(C)COC(=O)N1c2ccccc2NC(=O)[C@H]1CC(C)C
IC50 [9]: 67 µM
inhibition [11]: 22%
inhibition [12]: 51%

CC(C)COC(=O)N1CC(=O)Nc2ccccc21
inhibition [11]: 20%
inhibition [12]: 46%

O=C(O)Cn1c(=O)c(-c2ccc(O)cc2O)nc2ccc(F)cc21
IC50 [19]: 0.032 µM
inhibition [20]: 46.2%
Activity [21]: 9.1%

Oc1nc2cc(Cl)c(Cl)cc2n2ccnc12
IC50 [13]: 7.38 µM
IC50 [18]: 1.26 µM

CCC(C)N1CCc2c(Br)cc3nc(O)c(O)nc3c2C1 (centres undefined)
IC50 [13]: 2.5 µM
IC50 [14]: 0.43 µM
IC50 [15]: > 10 µM

CC(=O)N1CCN(c2c(/C=N/Nc3nc4ccccc4nc3O)c(C)nn2-c2ccccc2)CC1
inhibition [1]: 80%
IC50 [2]: > 50 µM

CN1CCc2c(c([N+](=O)[O-])cc3[nH]c(=O)c(=O)[nH]c23)C1
IC50 [13]: 0.29 µM
IC50 [14]: 0.38 µM
IC50 [15]: 4.9 µM

Cc1cc2[nH]c(=O)c(=O)n(CC(=O)O)c2cc1C
Ki [13]: 0.7 µM
Ki [18]: 13.8 µM

COC(=O)c1sccc1S(=O)(=O)N1c2cc(F)ccc2NC(=O)C1C (centres undefined)
IC50 [9]: 0.2 µM

Cc1ccc2c(c1)N[C@@H](C)C(=O)N2
inhibition (INH) [3]: 50%

Oc1nc2cc(Cl)c(Cl)cc2n2cnnc12
IC50 [13]: 4.69 µM
IC50 [18]: 0.63 µM

Cc1nn(-c2ccccc2)c(N2CCN(S(=O)(=O)c3ccccc3)CC2)c1/C=N/Nc1nc2ccccc2nc1O
inhibition [1]: 12%

CC(C)COC(=O)N1c2ccccc2NC(=O)[C@H]1C
IC50 [9]: 64 µM
inhibition [11]: 37%
inhibition [12]: 64%

COC(=O)c1sc(I)cc1S(=O)(=O)N1c2cc(Cl)ccc2NC(=O)C1C (centres undefined)
IC50 [9]: 0.075 µM

Cc1nn(-c2ccccc2)c(N2CCCCC2)c1/C=N/Nc1nc2ccccc2nc1O
inhibition [1]: 74%
IC50 [2]: > 50 µM

O=c1[nH]c2ccccc2nc1N/N=C/c1cccs1
IC50 [17]: 395.84 µM

O=C(O)CNS(=O)(=O)c1ccc2nc(O)c(O)nc2c1
IC50 [4]: > 100 µM
Ki [10]: > 100 µM
Ki [6]: > 100 µM
IC50 [7]: > 100 µM
Ki [8]: 53 µM

CCCc1nnc2c(O)nc3cc(Cl)c(Cl)cc3n12
IC50 [18]: 3.92 µM

Cc1nn(-c2ccccc2)c(SCCCO)c1/C=N/Nc1nc2ccccc2[nH]c1=O
IC50 [23]: 11.3 µM
IC50 [24]: 23.4 µM
inhibition [1]: 78%

Cc1ccc(C(=O)O)cc1-c1ccc2[nH]c(=O)c(=O)[nH]c2c1
IC50 [4]: 30 µM
Ki [5]: > 100 µM
Ki [10]: 1.3 µM
Ki [6]: > 100 µM
IC50 [7]: > 100 µM
Ki [8]: > 100 µM

O=c1[nH]c2ccc(/C=C/CP(=O)(O)O)cc2[nH]c1=O
IC50 [4]: > 100 µM
Ki [10]: > 100 µM
Ki [6]: > 100 µM
IC50 [7]: > 100 µM
Ki [8]: 69 µM

O=C(O)Cc1cccc(-c2ccc3[nH]c(=O)c(=O)[nH]c3c2)c1
IC50 [4]: > 100 µM
Ki [10]: > 100 µM
Ki [6]: > 100 µM
IC50 [7]: > 100 µM
Ki [8]: 41 µM

From ChEMBL document CHEMBL5113380, “Functionalized quinoxalinones as privileged structures with broad-ranging pharmacological activities” (Eur J Med Chem, 2022)
